Like-named read-outs stand apart in the source and are kept apart here.
Target: T1, human GR (Homo sapiens, UniProt P04150)
T1 sequence (P04150 1-777): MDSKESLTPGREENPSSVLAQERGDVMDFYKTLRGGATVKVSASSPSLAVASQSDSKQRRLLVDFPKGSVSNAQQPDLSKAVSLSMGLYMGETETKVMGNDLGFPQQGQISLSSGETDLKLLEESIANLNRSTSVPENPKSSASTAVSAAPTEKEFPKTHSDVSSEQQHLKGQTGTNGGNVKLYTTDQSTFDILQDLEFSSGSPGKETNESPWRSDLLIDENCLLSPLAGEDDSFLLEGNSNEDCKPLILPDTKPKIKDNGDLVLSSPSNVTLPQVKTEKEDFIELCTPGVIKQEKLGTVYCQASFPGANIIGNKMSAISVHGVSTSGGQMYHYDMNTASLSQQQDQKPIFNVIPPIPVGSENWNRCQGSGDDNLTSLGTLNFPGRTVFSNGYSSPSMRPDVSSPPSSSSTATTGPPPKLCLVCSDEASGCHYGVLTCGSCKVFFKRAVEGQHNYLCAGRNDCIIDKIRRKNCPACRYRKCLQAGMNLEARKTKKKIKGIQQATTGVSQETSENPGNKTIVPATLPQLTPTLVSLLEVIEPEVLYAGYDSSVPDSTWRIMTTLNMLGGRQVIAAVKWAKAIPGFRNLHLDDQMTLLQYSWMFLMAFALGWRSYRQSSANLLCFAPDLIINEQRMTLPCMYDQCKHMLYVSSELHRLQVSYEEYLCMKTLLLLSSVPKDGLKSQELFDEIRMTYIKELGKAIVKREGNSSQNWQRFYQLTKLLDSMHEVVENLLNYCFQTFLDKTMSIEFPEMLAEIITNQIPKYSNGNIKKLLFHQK
Assay: Transrepression Assay (GITAR), TNFα-β-lactamase reporter in U937 cells
Type: cell-based
Parameters: U937 cells contain an endogenous glucocorticoid receptor (GR); endogenous in cells; host or cells: U937 cells stably transfected with the TNF-alpha promoter/beta-lactamase reporter
Details: for GITAR > GRAMM % SEP: GITAR Emax minus GRAMMER Emax; for EC50: U937 cells, inflection point, read-out: Transrepression U937 Cells GITAR IP
How it was run: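 First, U937 reporter cells (TNF-α promoter–β-lactamase, native GR) received compound for 30–45 min at 37 °C. Next, PMA (5 ng/ml) and LPS (100 ng/ml) final were added for about 18 hr. Finally, CCF2-AM loading gave the read-out, with 100 nM dexamethasone as 100%.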

[1] = U-937, U937 cells, maximum activity, read-out: Transrepression U937 Cells GITAR Emax
[2] = U-937, activity repressed by 100 nM dexamethasone alone set as 100%, read-out: maximal activity in the transrepression (GITAR) assay

| SMILES | GITAR > GRAMM % SEP | EC50 | Emax [1] | Emax [2] |
| --- | --- | --- | --- | --- |
| CNC(=O)Nc1ccc(S(=O)(=O)N(CC2CC2)C[C@H]2CCC3=Cc4c(cnn4-c4ccc(F)cc4)C[C@@]32C)c(Cl)c1 [Example 14, 2-chloro-N-(cyclopropylmethyl)-N-{[(4αR,5S)-1-(4-fluorophenyl)-4α-methyl-1,4,4α,5,6,7-hexahydrocyclopenta[f]indazol-5-yl]methyl}-4-{[(methylamino)carbonyl]amino}-benzenesulfonamide] | 34.1% | 553 nM | 59.3% | > 5% |
| C[C@]12Cc3cnn(-c4ccc(F)cc4)c3C=C1CC[C@@H]2CN(CCO)S(=O)(=O)c1ccc(F)c(Cl)c1 [Example 19, 3-chloro-4-fluoro-N-{[(4αR,5S)-1-(4-fluorophenyl)-4α-methyl-1,4,4α,5,6,7-hexahydrocyclopenta[f]indazol-5-yl]methyl}-N-(2-hydroxyethyl)benzenesulfonamide] | 49.1% | 1720 nM | 69.8% | > 5% |
| Cc1oncc1S(=O)(=O)N(CC#N)C[C@H]1CCC2=Cc3c(cnn3-c3ccc(F)cc3)C[C@@]21C [Example 23, N-(cyanomethyl)-N-{[(4αR,5S)-1-(4-fluorophenyl)-4α-methyl-1,4,4α,5,6,7-hexahydrocyclopenta[f]indazol-5-yl]methyl}-5-methylisoxazole-4-sulfonamide] | 31.3% | 2250 nM | 34% | > 5% |
| C[C@]12Cc3cnn(-c4ccc(F)cc4)c3C=C1CC[C@@H]2CN(CC#N)S(=O)(=O)c1cc(Cl)c(Cl)s1 [Example 24, 4,5-dichloro-N-(cyanomethyl)-N-{[(4αR,5S)-1-(4-fluorophenyl)-4α-methyl-1,4,4α,5,6,7-hexahydrocyclopenta[f]indazol-5-yl]methyl}thiophene-2-sulfonamide] | 27.2% | 565 nM | 37.7% | > 5% |
| C[C@]12Cc3cnn(-c4ccc(F)cc4)c3C=C1CC[C@@H]2CN(CC#N)S(=O)(=O)c1ccc(Cl)c(C(F)(F)F)c1 [Example 27, 4-chloro-N-(cyanomethyl)-N-{[(4αR,5S)-1-(4-fluorophenyl)-4α-methyl-1,4,4α,5,6,7-hexahydrocyclopenta[f]indazol-5-yl]methyl}-3-(trifluoromethyl)benzenesulfonamide] | 10.0% | 638 nM | 13% | > 5% |
| C[C@]12Cc3cnn(-c4ccc(F)cc4)c3C=C1CC[C@@H]2CN(CC#N)S(=O)(=O)c1ccc(C#N)cc1 [Example 28, 4-cyano-N-(cyanomethyl)-N-{[(4αR,5S)-1-(4-fluorophenyl)-4α-methyl-1,4,4α,5,6,7-hexahydrocyclopenta[f]indazol-5-yl]methyl}benzenesulfonamide] | 34.8% | 662 nM | 78.8% | > 5% |
| Cc1cc(S(=O)(=O)N(CC#N)C[C@H]2CCC3=Cc4c(cnn4-c4ccc(F)cc4)C[C@@]32C)c(C)cc1Cl [Example 29, 4-chloro-N-(cyanomethyl)-N-{[(4αR,5S)-1-(4-fluorophenyl)-4α-methyl-1,4,4α,5,6,7-hexahydrocyclopenta[f]indazol-5-yl]methyl}-2,5-dimethylbenzenesulfonamide] | 26.2% | 838 nM | 30.9% | > 5% |

Stronger by EC50, values ahead:

| GITAR > GRAMM % SEP | EC50 | Emax [1] | Emax [2] | SMILES |
| --- | --- | --- | --- | --- |
| 7.8% | 305 nM | 16.1% | > 5% | C[C@]12Cc3cnn(-c4ccc(F)cc4)c3C=C1CC[C@@H]2CN(CC1CC1)S(=O)(=O)/C=C/c1ccccc1 [Example 13, (E)-N-(cyclopropylmethyl)-N-{[(4αR,5S)-1-(4-fluorophenyl)-4α-methyl-1,4,4α,5,6,7-hexahydrocyclopenta[f]indazol-5-yl]methyl}-2-phenylethylenesulfonamide] |
| 31.4% | 258 nM | 59% | > 5% | C[C@]12Cc3cnn(-c4ccc(F)cc4)c3C=C1CC[C@@H]2CN(CC1CC1)S(=O)(=O)c1ccc(F)c(Cl)c1 [Example 15, 3-chloro-N-(cyclopropylmethyl)-4-fluoro-N-{[(4αR,5S)-1-(4-fluorophenyl)-4α-methyl-1,4,4α,5,6,7-hexahydrocyclopenta[f]indazol-5-yl]methyl}benzenesulfonamide] |
| – | 268 nM | 84.5% | > 5% | C[C@]12Cc3cnn(-c4ccc(F)cc4)c3C=C1CC[C@@H]2CN(CCC#N)S(=O)(=O)c1ccccc1F [Example 16, N-(2-cyanoethyl)-2-fluoro-N-{[(4αR,5S)-1-(4-fluorophenyl)-4α-methyl-1,4,4α,5,6,7-hexahydrocyclopenta[f]indazol-5-yl]methyl}benzenesulfonamide] |
| – | 347 nM | 82.1% | > 5% | C[C@]12Cc3cnn(-c4ccc(F)cc4)c3C=C1CC[C@@H]2CN(CCO)S(=O)(=O)c1ccccc1F [Example 17, 2-fluoro-N-{[(4αR,5S)-1-(4-fluorophenyl)-4α-methyl-1,4,4α,5,6,7-hexahydrocyclopenta[f]indazol-5-yl]methyl}-N-(2-hydroxyethyl)benzenesulfonamide] |
| 15.3% | 415 nM | 35.3% | > 5% | COC(=O)c1ccccc1S(=O)(=O)N(CC1CC1)C[C@H]1CCC2=Cc3c(cnn3-c3ccc(F)cc3)C[C@@]21C [Example 18, methyl 2-[((cyclopropylmethyl){[(4αR,5S)-1-(4-fluorophenyl)-4α-methyl-1,4,4α,5,6,7-hexahydrocyclopenta[f]indazol-5 yl]methyl}amino)sulfonyl]benzoate] |
| 1.6% | 373 nM | 69.7% | > 5% | C[C@]12Cc3cnn(-c4ccc(F)cc4)c3C=C1CC[C@@H]2CN(CC#N)S(=O)(=O)c1ccc(F)c(Cl)c1 [Example 20, 3-chloro-N-(cyanomethyl)-4-fluoro-N-{[(4αR,5S)-1-(4-fluorophenyl)-4α-methyl-1,4,4α,5,6,7-hexahydrocyclopenta[f]indazol-5-yl]methyl}benzenesulfonamide] |
| – | 365 nM | 58.7% | > 5% | C[C@]12Cc3cnn(-c4ccc(F)cc4)c3C=C1CC[C@@H]2CN(CC1CC1)S(=O)(=O)Cc1ccccc1 [Example 21, N-(cyclopropylmethyl)-N-{[(4αR,5S)-1-(4-fluorophenyl)-4α-methyl-1,4,4α,5,6,7-hexahydrocyclopenta[f]indazol-5-yl]methyl}-1-phenylmethanesulfonamide] |
| 13.0% | 222 nM | 89.4% | > 5% | C[C@]12Cc3cnn(-c4ccc(F)cc4)c3C=C1CC[C@@H]2CN(CC#N)S(=O)(=O)c1ccc(F)c(F)c1 [Example 25, N-(cyanomethyl)-3,4-difluoro-N-{[(4αR,5S)-1-(4-fluorophenyl)-4α-methyl-1,4,4α,5,6,7-hexahydrocyclopenta[f]indazol-5-yl]methyl}benzenesulfonamide] |
| 10.2% | 25 nM | 16% | > 5% | C[C@]12Cc3cnn(-c4ccc(F)cc4)c3C=C1CC[C@@H]2CN(CC#N)S(=O)(=O)c1cccc(Cl)c1Cl [Example 26, 2,3-dichloro-N-(cyanomethyl)-N-{[(4αR,5S)-1-(4-fluorophenyl)-4α-methyl-1,4,4α,5,6,7-hexahydrocyclopenta[f]indazol-5-yl]methyl}benzenesulfonamide] |

From patent US8299048B2, “Hexahydrocyclopentyl[f]indazole sulfonamides and derivatives thereof as selective glucocorticoid receptor modulators” (Merck Sharp & Dohme Corp., priority 2008, dated 2012)
